# Measurements published in patent US20040106584A1, “Prophylactic docosahexaenoic acid therapy for patients with subclinical inflammation” (priority 2002, published 2004).
# Legend:
# [1] = target: T1, platelet glycoprotein IIb/IIa receptors (Homo sapiens, UniProt P05106+P08514); conditions: cited from earlier work
# T1 construct: host or cells: platelets in vivo (endogenous receptor)
# [2] = system: C-reactive protein (CRP); experiment: Clinical study of DHASCO capsules co-administered with statin in dyslipidemia patients: CRP levels; assay type: in vivo, human; conditions: 20 patients treated with DHA, 200 or 1000 mg daily
# Procedure: In a clinical study DHASCO capsules (which contained DHA as a triglyceride oil extracted from Crypthecodinium cohnii cells, obtained from Martek Biosciences Corp., Columbia, Md.) were co-administered with statin medication to patients with dyslipidemia. Hyperlipidemic patients already being treated with a stable dose of a statin medication but still failing to meet NCEP guidelines for LDL-cholesterol or triglycerides were treated with either 200 or 1000 mg of DHA daily for 12 months. HbAlc levels (glycosylated hemoglobin, a marker of glycemic control) were measured in plasma at baseline and after 8 or 12 months of treatment.
# Reduction in CRP of this extent is clinically significant, and may be correlated with a benefit of reduced risk of Type II diabetes onset, independent of other Type II risk factors.
# [3] = in vivo; cited from earlier work
# [4] = cited from earlier work
# [5] = system: ADP-induced platelet aggregation; conditions: oral loading dose of 300-600 mg; cited from earlier work
# [6] = system: obese diabetic mice; conditions: 100 mg/kg body weight, but not normal or lean diabetic mice; cited from earlier work
compound,measurement,setting,value
abciximab: humanized mouse antibody fragment with a high binding affinity for the glycoprotein IIb/IIa receptor,persistent blockade of platelet glycoprotein IIb/IIa receptors,[1]; 24 hours after cessation of an infusion,more than 50%
same,time to recovery of platelet function,[1]; after cessation of an infusion,2 days
"CC/C=C\C/C=C\C/C=C\C/C=C\C/C=C\C/C=C\CCC(=O)O [DHA, docosahexaenoic acid]",overall reduction in CRP level,[2],15%
Clc1ccccc1CN1CCc2sccc2C1 [Ticlopidine],risk of skin rash and diarrhea compared with aspirin,[3],doubles
"CC(=O)Oc1ccccc1C(=O)O [Aspirin, acetylsalicylic acid]",reduction of the risk of serious vascular events,[4]; patients at high risk of such an event,about a quarter
COC(=O)[C@H](c1ccccc1Cl)N1CCc2sccc2C1 [Clopidogrel],time to detectable inhibition of ADP-induced platelet aggregation,[5],2 h
same,time to maximal inhibition of ADP-induced platelet aggregation,[5],6 h
same,reduction of the risk of serious vascular events compared with aspirin,[4]; high-risk patients,about 10%
same,risk of skin rash and diarrhea compared with aspirin,[3],about a third
CC/C=C\C/C=C\C/C=C\C/C=C\C/C=C\C/C=C\CCC(=O)OCC [DHA ethyl ester],blood glucose,[6],reduced
same,insulin sensitivity,[6],enhanced
same,plasma triglycerides,[6],reduced
